Consider eight molecules from US8552041B2, “Therapeutic approaches for treating alzheimer disease and related disorders through a modulation of cell stress response” (Pharnext, priority 2008, dated 2013).

The subject of data set [1] is rat primary cortical neuron culture. The experiment in a line: LDH release in Aβ25-35 intoxicated rat primary cortical neuron culture. It is filed as cell-based. To be noted: Aβ25-35 20 μM, 2 days; drug pre-incubated 1 h; FIG. 2. As for the experimental part: Primary rat cortical neurons are cultured as described by Singer et al., 1999. Briefly pregnant female rats of 15 days gestation are killed by cervical dislocation (Rats Wistar; Janvier) and the foetuses removed from the uterus. The cortex are removed and placed in ice-cold medium of Leibovitz (L15; Invitrogen) containing 1% of Penicillin-Streptomycin (PS; Invitrogen) and 1% of bovine serum albumin (BSA; Sigma). Cortex are dissociated by trypsinisation for 20 min at 37° C. (Trypsin EDTA 1×; Invitrogen) diluted in PBS without calcium and magnesium. The reaction is stopped by the addition of Dulbecco's modified Eagle's medium (DMEM; Invitrogen) containing DNAase I grade II (0.1 mg/ml; Roche Diagnostic) and 10% of foetal calf serum (FCS; Invitrogen). Cells are then mechanically dissociated by 3 passages through a 10 ml pipette. Cells are then centrifuged at 180×g for 10 min at 10° C. The supernatant is discarded and the cells of pellet are re-suspended in a defined culture medium consisting of Neurobasal (Invitrogen) supplemented with B27 (2%; Invitrogen), L-glutamine (0.2 mM; Invitrogen), 1% of PS solution and 10 ng/ml of Brain-derived neurotrophic factor (BDNF, Pan Biotech). Viable cells are counted in a Neubauer cytometer using the trypan blue exclusion test. Cells are seeded at a density of 30 000 cells/well in 96 well-plates (wells are pre-coated with poly-L-lysine (10 ng/ml; Sigma)) and are cultured at 37° C. in a humidified air (95%)/CO2 (5%) atmosphere.
After 6 days of culture, cells are incubated with drugs (5 concentrations). After 1 hour, cells are intoxicated by 20 μM of β-amyloid (25-35; Sigma) in defined medium without BDNF but together with drugs. Cortical neurons are intoxicated for 2 days. BDNF (10 ng/ml) is used as a positive (neuroprotective) control.
After 2 days of culture, the supernatant is collected and analyzed with Cytotoxicity Detection Kit (LDH, Roche Applied Sciences). This colorimetric assay for the quantification of cell death is based on the measurement of lactate dehydrogenase (LDH) activity released from the cytosol of damaged cells into the supernatant. The optic density (DO) is assessed by spectrophotometer at 492 nm wavelength by a multiscan apparatus (Thermo, Ref Ascent). Results are expressed in percentage of cell viability, compared to the negative control (vehicle).
Results presented in FIGS. 1 and 2 are extracted from two independent cultures, 6 wells per condition. All values are expressed as mean±s.e.mean. A bilateral Student's t test analysis is performed on raw data. […]
Rat primary cortical neurons are incubated with drugs one hour before Aβ25-35 20 μM intoxication that lasts 2 days. Two days after this incubation, LDH release in the culture medium is quantified, reflecting the level of cell death.
(In general: LDH leaks from cells whose membrane has failed.)

Data set [2] relates to NGF-differentiated PC12. The experiment in a line: MTT viability of NGF-differentiated PC12 cells after Abeta25-35 intoxication. It is filed as cell-based, Rat. To be noted: Abeta25-35 10 μM, 24 h; drug pre-incubated 1 h; FIG. 1. As for the experimental part: PC12 (Pheochromocytoma Rat, ATCC ref: CRL-1721) cells from [NT] CRL-1721) were rapidly thawed in 37° C. water. The supernatant was immediately put in 9 ml of a “PC12 proliferation medium” containing Dulbecco's modified Eagle's medium DMEM-F12 (Pan Biotech ref: P04-41450) with 15% heat-inactivated horse serum (Invitrogen ref: 16050-130), 2.5% of fetal bovine serum (FBS; Invitrogen ref: 16000-036), 1% of Penicillin 10.000 U/ml and Streptomycin 10 mg/ml (PS; Pan Biotech ref: P06-07100) and 1% de L-glutamine 200 mM (Pan Biotech ref: P04-80100). Cells were centrifuged (800 rounds/min, 4° C. for 5 min) and added in 5 ml “PC12 proliferation medium”, viable cells were counted with a Malassez cell using the neutral red exclusion test (Sigma). Then the cells were seeded at 3·10^4 cells per cm^2 in “PC12 proliferation medium” in 75 cm^2 plastic flasks (Greiner Ref: 658175) precoated with poly-L-lysine (10 μg/ml, Sigma Ref: P2636). Medium was changed every other day. After 3 days of culture, when cells reached 80% of confluence, they were washed in HBSS without calcium and magnesium (Pan Biotech Ref: P06-33500) and incubated in trypsin EDTA, (0.05%, Pan Biotech Ref: P10-023100). The enzymatic reaction was stopped with PC12 proliferation medium added by 0.5 mg/ml of DNAse 1 grade 2 (Pan Biotech Ref: T60-37780100). […]

Data set [3] has as its system Human Brain Microvascular Endothelial Cells (HBMEC). The experiment in a line: Capillary network length in human Aβ1-42 intoxicated HBMEC on matrigel. It is filed as cell-based. To be noted: for Effect on intoxication, total length of capillary network in beta-amyloid intoxicated HBMEC cultures: Aβ1-42 2.5 μM, combination versus each drug alone at the same concentrations, FIGS. 5 and 6. As for the experimental part: Human brain microvascular endothelial cerebral cells (HBMEC, ScienCell Ref: 1000, frozen at passage 10) were rapidly thawed in a waterbath at +37° C. The supernatant was immediately put in 9 ml Dulbecco's modified Eagle's medium (DMEM; Pan Biotech ref: P04-03600) containing 10% of foetal calf serum (FCS; GIBCO ref 10270-106). Cell suspension was centrifuged at 180×g for 10 min at +4° C. and the pellets were suspended in CSC serum-free medium (CSC serum free, Cell System, Ref: SF-4Z0-500-R, Batch 51407-4) with 1.6% of Serum free RocketFuel (Cell System, Ref: SF-4Z0-500-R, Batch 54102), 2% of Penicillin 10.000 U/ml and Streptomycin 10 mg/ml (PS; Pan Biotech ref: P06-07100 batch 133080808) and were seeded at the density of 20 000 cells per well in 96 well-plates (matrigel layer biocoat angiogenesis system, BD, Ref 354150, Batch A8662) in a final volume of 100 μl. On matrigel support, endothelial cerebral cells spontaneously started the process of capillary network morphogenesis (54).
Three separate cultures were performed per condition, 6 wells per condition.
Briefly, Aβ1-42 peptide (Bachem, ref: H1368 batch 1010533) was reconstituted in define culture medium at 20 μM (mother solution) and was slowly shacked at +37° C. for 3 days in. The control medium was prepared in the same conditions.
After 3 days, this human amyloid peptide was used on HBMEC at 2.5 μM diluted in control medium (optimal incubation time). The Aβ1-42 peptide was added 2 hours after HBMEC seeding on matrigel for 18 hours incubation.
One hour after HBMEC seeding on matrigel, test compounds and VEGF-165 were solved in culture medium (+0.1% DMSO) and then pre-incubated with HBMEC for 1 hour before the Aβ1-42 application (in a final volume per culture well of 100 μl).
VEGF-165, known to be a pro-angiogenic isoform of VEGF-A, was used for all experiments in this study as reference compound.
The following conditions were assessed: • Negative Control: medium alone+0.1% DMSO • Intoxication: amyloid-β1-42 (2.5 μM) for 18 h • Positive control: VEGF-165 (10 nM) (1 reference compound/culture) 1 hr before the Aβ1-42 (2.5 μM) addition for a 18 h incubation time. • Test compounds: Test compound I hr before the Aβ1-42 (2.5 μM) addition for a 18 h incubation time. Capillary Network Quantification
Per well, 2 pictures with 4× lens were taken using InCell Analyzer™ 1000 (GE Healthcare) in light transmission. All images were taken in the same conditions. Analysis of the angiogenesis networks was done using Developer software (GE Healthcare). The total length of capillary network was assessed.
All values are expressed as mean±s.e.mean of the 3 cultures (n=6 per condition). […] Indeed, the amyloid toxicity was taken as the 100% and the test compound effect was calculated as a % of this amyloid toxicity. […]

Data set [4] relates to rat primary cortical neuron cells. The experiment in a line: LDH release in human Aβ1-42 intoxicated rat primary cortical neuron culture. Type of data set: cell-based. To be noted: human Aβ1-42 10 μM, 24 h; 1 hr pre-treatment; FIG. 4. As for the experimental part: Primary rat cortical neurons are cultured as described previously.
The control medium was prepared in the same conditions.
Cortical neurons were intoxicated for 24 hours. Three separate cultures were performed per condition, 6 wells per condition.
This colorimetric assay for the quantification of cell toxicity is based on the measurement of lactate dehydrogenase (LDH) activity released from the cytosol of dying cells into the supernatant.
All values are expressed as mean±s.e.mean of the 3 cultures (n=6 per condition).

Turning to `Cc1oncc1C(=O)Nc1ccc(C(F)(F)F)cc1` [Leflunomide], the “Prevention of Aβ25-35 intoxication, LDH release in rat primary cortical neurons” value (from here on “Prevention of Aβ25-35 intoxication”) in data set [1] is “significantly prevented”.
Regarding `CCCNC(C)C(=O)Nc1ccccc1C` (centres unmarked) [Prilocaln, Prilocaine], in data set [2], the “Prevention of Abeta25-35 intoxication, viability of NGF-differentiated PC12 (MTT)” value was “significantly prevented”.
For the molecule `Cc1noc(NS(=O)(=O)c2ccc(N)cc2)c1C` [Sulfisoxazole], the “Effect on intoxication, total length of capillary network in beta-amyloid intoxicated HBMEC cultures” value (shortened to “Effect on intoxication, total length”) in data set [3] is reported as “no significant effect”. Besides, the “Prevention of human Aβ1-42 injury in HBMEC (capillary network), single drug” value in data set [3] (human Aβ1-42 2.5 μM, 18 h, 1 hr pre-treatment, FIG. 3B) was “significantly prevented”. Besides, the “Prevention of Aβ25-35 intoxication” value in data set [1] is “significantly prevented”.
For the molecule `C[C@@H]1CC(=O)NN=C1c1ccc(NN=C(C#N)C#N)cc1` [Levosimendan], the “Effect on intoxication, total length” value in data set [3] was “no significant effect”.
In the case of `CN(C/C=C/C#CC(C)(C)C)Cc1cccc2ccccc12` [Terbinafine], the “Effect on intoxication, total length” value in data set [3] is listed as “no significant effect”.
As to `CN1CC(=O)N2[C@H](c3ccc4c(c3)OCO4)c3[nH]c4ccccc4c3C[C@@H]2C1=O` [Tadalafil], the “LDH release compared to amyloid intoxication” value in data set [4] is given as −57%.
With `NS(=O)(=O)Cc1noc2ccccc12` [Zonisamide], the “Prevention of Aβ25-35 intoxication” value in data set [1] was “significantly prevented”.

B1: BDNF: Brain-derived neurotrophic factor, positive (neuroprotective) control (protein, UniProt P23560 19-247, looked up)
Neurotrophic factor BDNF …: APMKEANIRGQGGLAYPGVRTHGTLESVNGPKAGSRGLTSLADTFEHVIEELLDEDQKVRPNEENNKDADLYTSRVMLSSQVPLEPPLLFLLEEYKNYLDAANMSMRVRRHSDPARRGELSVCDSISEWVTAADKKTAVDMSGGTVTVLEKVPVSKGQLKQYFYETKCNPMGYTKEGCRGIDKRHWNSQCRTTQSYVRALTMDSKKRIGWRFIRIDTSCVCTLTIKRGR
For the molecule B1, the “LDH release compared to amyloid intoxication” value in data set [4] is listed as −95%. For the same molecule, the “Prevention of Aβ25-35 intoxication” value in data set [1] is reported as “efficiently prevented”.
